Columns and labels:
Cbl-b = Cbl-b (Homo sapiens (Human), UniProt Q13191); assay: Cbl-b LCK Ub TR-FRET assay (Cbl-b Lck HTRF); type: biochemical; details: for IC50: Cbl-b LCK Ub TR-FRET; for fold-selectivity (Cbl-b over C-cbl) / (fold-selectivity) Cbl-b and C-Cbl Selectivity: ratio C-cbl Lck HTRF IC50 / Cbl-b Lck HTRF IC50
Outline: (§1)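 After the ubiquitination reaction, detection mixture was added and plates incubated 20 min at room temperature before reading. IC50 values were calculated with wells lacking LCK as the low control and DMSO as the high control.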

c-Cbl = c-Cbl (Homo sapiens (Human), UniProt P22681); assay: C-Cbl LCK Ub TR-FRET assay (C-cbl Lck HTRF); type: biochemical
c-Cbl, sequence (P22681 47-435): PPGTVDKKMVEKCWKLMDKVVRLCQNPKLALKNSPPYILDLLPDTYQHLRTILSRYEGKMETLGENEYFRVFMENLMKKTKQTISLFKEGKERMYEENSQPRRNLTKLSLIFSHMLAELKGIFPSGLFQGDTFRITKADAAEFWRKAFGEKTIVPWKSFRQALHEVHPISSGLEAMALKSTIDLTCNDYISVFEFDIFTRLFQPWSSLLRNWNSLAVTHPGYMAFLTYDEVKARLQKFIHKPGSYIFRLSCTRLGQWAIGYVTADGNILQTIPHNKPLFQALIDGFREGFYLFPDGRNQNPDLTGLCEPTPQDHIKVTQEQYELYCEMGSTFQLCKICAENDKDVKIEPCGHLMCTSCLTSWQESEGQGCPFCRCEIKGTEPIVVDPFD
Outline: as §1

[1] = molecular target: Human Cbl-b (residues 40-426) (Homo sapiens (Human), UniProt Q13191); assay: Cbl-b SPR assay; type: binding; details: for Fold of selectivity: C-cbl SPR Kd vs Cbl-b SPR Kd; for Kd: SPR, 20° C.
Human Cbl-b (residues 40-426), sequence (Q13191 40-426): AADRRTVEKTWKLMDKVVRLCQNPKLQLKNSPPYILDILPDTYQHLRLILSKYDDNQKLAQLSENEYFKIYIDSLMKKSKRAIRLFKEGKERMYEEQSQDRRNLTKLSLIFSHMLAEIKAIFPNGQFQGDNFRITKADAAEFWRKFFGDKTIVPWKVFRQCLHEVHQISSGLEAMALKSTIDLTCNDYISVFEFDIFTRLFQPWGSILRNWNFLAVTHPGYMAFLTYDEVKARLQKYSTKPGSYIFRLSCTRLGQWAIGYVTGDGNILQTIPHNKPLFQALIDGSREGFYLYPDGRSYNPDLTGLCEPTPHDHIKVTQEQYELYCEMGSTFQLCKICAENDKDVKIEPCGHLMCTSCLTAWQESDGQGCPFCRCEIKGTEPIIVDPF
Outline: (§2)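 Binding was measured by SPR and fitted to a 1:1 model from multi-cycle kinetics with double referencing, 6 concentrations in 2-fold dilution. Alternatively, single-cycle titrations up to 500 nM (120 s contact) were fitted with kd fixed from a single-exponential fit of chaser-measured % compound bound versus time.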

c-Cbl (residues 47-435) = c-Cbl (residues 47-435) (Homo sapiens (Human), UniProt P22681); assay: c-Cbl SPR assay; type: binding; details: 20° C.
c-Cbl (residues 47-435), sequence (P22681 47-435): as the sequence (P22681 47-435) above
Outline: as §2

Cbl-b, sequence (Q13191 40-426): as the sequence (Q13191 40-426) above

SMILES: CO[C@H]1C[C@](c2cccc(N3Cc4c(cc(CN5CCN(C)C[C@@H]5C(C)C)cc4C(F)(F)F)C3=O)c2)(c2nncn2C)C1 [Compound 180, 6-(((S)-2-isopropyl-4-methylpiperazin-1-yl)methyl)-2-(3-((1r,3S)-3-methoxy-1-(4-methyl-4H-1,2,4-triazol-3-yl)cyclobutyl)phenyl)-4-(trifluoromethyl)isoindolin-1-one]
- IC50 (Cbl-b): 0.018 µM
- fold-selectivity (Cbl-b over C-cbl) (Cbl-b): 3.7x
- IC50 (c-Cbl): 0.074 µM
- Fold of selectivity [1]: 10.2×
- Kd [1]: 0.0035 µM
- Kd (c-Cbl (residues 47-435)): 0.036 µM

SMILES: Cn1cnnc1[C@]1(c2cc(NC3CC(F)(F)C3)nc(N3Cc4c(cc(CNC5(C)CCC5)cc4C(F)(F)F)C3=O)c2)C[C@H](C)C1 [Compound 49, 2-(6-((3,3-difluorocyclobutyl)amino)-4-((1s,3s)-3-methyl-1-(4-methyl-4H-1,2,4-triazol-3-yl)cyclobutyl)pyridin-2-yl)-6-(((1-methylcyclobutyl)amino)methyl)-4-(trifluoromethyl)isoindolin-1-one]
- IC50 (Cbl-b): 0.014 µM
- fold-selectivity (Cbl-b over C-cbl) (Cbl-b): (1.4x)
- IC50 (c-Cbl): 0.0196 µM
- Fold of selectivity [1]: 7.0×
- Kd [1]: 0.0022 µM
- Kd (c-Cbl (residues 47-435)): 0.016 µM

SMILES: CC(=O)C1CC([C@H](c2cccc(N3Cc4c(cc(CNC5(C)CCC5)cc4C(F)(F)F)C3=O)c2)c2nncn2C)C1 (single isomer, unassigned) [Compound 385]
- IC50 (Cbl-b): 0.26 µM
- fold-selectivity (Cbl-b over C-cbl) (Cbl-b): 2.8x
- IC50 (c-Cbl): 0.72 µM
- Fold of selectivity [1]: 0.7×
- Kd [1]: 0.56 µM
- Kd (c-Cbl (residues 47-435)): 0.39 µM

SMILES: CCCNCc1cc2c(c(C(F)(F)F)c1)CN(c1cccc([C@]3(c4nncn4C)C[C@H](OC)C3)c1)C2=O [Compound 511, 2-(3-((1r,3r)-3-methoxy-1-(4-methyl-4H-1,2,4-triazol-3-yl)cyclobutyl)phenyl)-6-((propylamino)methyl)-4-(trifluoromethyl)isoindolin-1-one]
- IC50 (Cbl-b; Example 121): 0.012 µM
- (fold-selectivity) Cbl-b and C-Cbl Selectivity (Cbl-b): 5.0x
- IC50 (c-Cbl): 0.061 µM
- Fold of selectivity [1]: 13×
- Kd [1]: 0.005 µM
- Kd (c-Cbl (residues 47-435)): 0.065 µM

SMILES: Cn1nnnc1[C@@H](c1cccc(N2Cc3c(cc(CNC4(C)CCC4)cc3C(F)(F)F)C2=O)c1)C1COC1 (single isomer, unassigned) [Compound 348]
- IC50 (Cbl-b): 0.14 µM
- fold-selectivity (Cbl-b over C-cbl) (Cbl-b): 3.5x
- IC50 (c-Cbl): 0.5 µM
- Fold of selectivity [1]: 8.4×
- Kd [1]: 0.075 µM
- Kd (c-Cbl (residues 47-435)): 0.63 µM

SMILES: C[C@H]1C[C@](c2cccc(N3Cc4c(cc(CNC5(C)CCC5)cc4C(F)(F)F)C3=O)c2)(c2nncn2C)O1 [Compound 125, 2-(3-((2S,4S)-4-methyl-2-(4-methyl-4H-1,2,4-triazol-3-yl)oxetan-2-yl)phenyl)-6-(((1-methylcyclobutyl)amino)methyl)-4-(trifluoromethyl)isoindolin-1-one]
- IC50 (Cbl-b): 0.41 µM
- fold-selectivity (Cbl-b over C-cbl) (Cbl-b): 5.7x
- IC50 (c-Cbl): 2.3 µM
- Fold of selectivity [1]: 11×
- Kd [1]: 0.13 µM
- Kd (c-Cbl (residues 47-435)): 1.5 µM

SMILES: Cn1cnnc1[C@]1(c2cccc(N3Cc4c(cc(CNC5(C)CCC5)cc4C(F)(F)F)C3=O)c2)C[C@H](Cl)C1 [Compound 138, 2-(3-((1s,3s)-3-chloro-1-(4-methyl-4H-1,2,4-triazol-3-yl)cyclobutyl)phenyl)-6-(((1-methylcyclobutyl)amino)methyl)-4-(trifluoromethyl)isoindolin-1-one]
- IC50 (Cbl-b): 0.0041 µM
- fold-selectivity (Cbl-b over C-cbl) (Cbl-b): 1.0x
- IC50 (c-Cbl): 0.0042 µM
- Fold of selectivity [1]: 5.6×
- Kd [1]: 0.00075 µM
- Kd (c-Cbl (residues 47-435)): 0.0042 µM

SMILES: CNc1cc(N2Cc3c(cc(CNC4(C)CCC4)cc3C(F)(F)F)C2=O)cc([C@]2(c3nncn3C)C[C@@H](OC)C2)c1 [Compound 238, 2-(3-((1s,3s)-3-methoxy-1-(4-methyl-4H-1,2,4-triazol-3-yl)cyclobutyl)-5-(methylamino)phenyl)-6-(((1-methylcyclobutyl)amino)methyl)-4-(trifluoromethyl)isoindolin-1-one]
- IC50 (Cbl-b): 0.012 µM
- fold-selectivity (Cbl-b over C-cbl) (Cbl-b): 1.1x
- IC50 (c-Cbl): 0.014 µM
- Fold of selectivity [1]: 2.6×
- Kd [1]: 0.0022 µM
- Kd (c-Cbl (residues 47-435)): 0.0058 µM

SMILES: CO[C@H]1C[C@](c2cccc(N3Cc4c(cc([C@H](N)C(C)(C)C)cc4C(F)(F)F)C3=O)c2)(c2nncn2C)C1 (single isomer, unassigned) [Compound 360]
- IC50 (Cbl-b): 0.092 µM
- fold-selectivity (Cbl-b over C-cbl) (Cbl-b): 6.4x
- IC50 (c-Cbl): 0.59 µM
- Fold of selectivity [1]: 10×
- Kd [1]: 0.084 µM
- Kd (c-Cbl (residues 47-435)): 0.84 µM

SMILES: Cn1cnnc1[C@]1(c2cccc(N3Cc4c(cc(CNC5(C)CCC5)cc4C(F)F)C3=O)c2)C[C@H](Cl)C1 [Compound 446, 2-(3-((1s,3s)-3-chloro-1-(4-methyl-4H-1,2,4-triazol-3-yl)cyclobutyl)phenyl)-4-(difluoromethyl)-6-(((1-methylcyclobutyl)amino)methyl)isoindolin-1-one]
- IC50 (Cbl-b; Example 121): 0.0068 µM
- (fold-selectivity) Cbl-b and C-Cbl Selectivity (Cbl-b): 1.7x
- IC50 (c-Cbl): 0.011 µM
- Fold of selectivity [1]: 5.1×
- Kd [1]: 0.0013 µM
- Kd (c-Cbl (residues 47-435)): 0.0066 µM

SMILES: CO[C@H]1C[C@](c2cccc(N3Cc4c(cc(CNCC5(C)CC5(F)F)cc4C(F)(F)F)C3=O)c2)(c2nncn2C)C1 (stereo partly drawn) [Compound 501, 6-((((2,2-difluoro-1-methylcyclopropyl)methyl)amino)methyl)-2-(3-((1r,3r)-3-methoxy-1-(4-methyl-4H-1,2,4-triazol-3-yl)cyclobutyl)phenyl)-4-(trifluoromethyl)isoindolin-1-one]
- IC50 (Cbl-b; Example 121): 0.011 µM
- (fold-selectivity) Cbl-b and C-Cbl Selectivity (Cbl-b): 4.8x
- IC50 (c-Cbl): 0.052 µM
- Fold of selectivity [1]: 16×
- Kd [1]: 0.0046 µM
- Kd (c-Cbl (residues 47-435)): 0.081 µM

SMILES: Cn1cnnc1[C@H](CC1CCCC1)c1cccc(N2Cc3c(cc(CNC4(C)CCC4)cc3C(F)(F)F)C2=O)c1 [Compound 249, (R)-2-(3-(2-cyclopentyl-1-(4-methyl-4H-1,2,4-triazol-3-yl)ethyl)phenyl)-6-(((1-methylcyclobutyl)amino)methyl)-4-(trifluoromethyl)isoindolin-1-one]
- IC50 (Cbl-b): 0.1 µM
- fold-selectivity (Cbl-b over C-cbl) (Cbl-b): 5.0x
- IC50 (c-Cbl): 0.5 µM
- Fold of selectivity [1]: 6.9×
- Kd [1]: 0.049 µM
- Kd (c-Cbl (residues 47-435)): 0.3 µM

SMILES: Cn1cnnc1C(c1cccc(N2Cc3c(cc(CNC4(C)CCC4)cc3C(F)(F)F)C2=O)c1)[C@H]1C[C@H](CC#N)C1 (single isomer, unassigned) [Compound 363]
- IC50 (Cbl-b): 0.061 µM
- fold-selectivity (Cbl-b over C-cbl) (Cbl-b): 2.3x
- IC50 (c-Cbl): 0.14 µM
- Fold of selectivity [1]: 3.6×
- Kd [1]: 0.078 µM
- Kd (c-Cbl (residues 47-435)): 0.28 µM

SMILES: CO[C@H]1C[C@](c2cccc(N3Cc4c(cc(CNCC5(CF)CC5)cc4C(F)(F)F)C3=O)c2)(c2nncn2C)C1 [Compound 496, 6-((((1-(fluoromethyl)cyclopropyl)methyl)amino)meth-yl)-2-(3-((1r,3r)-3-methoxy-1-(4-methyl-4H-1,2,4-triazol-3-yl)cyclobutyl)phenyl)-4-(trifluoromethyl)isoindolin-1-one]
- IC50 (Cbl-b; Example 121): 0.017 µM
- (fold-selectivity) Cbl-b and C-Cbl Selectivity (Cbl-b): 5.2x
- IC50 (c-Cbl): 0.087 µM
- Fold of selectivity [1]: 12×
- Kd [1]: 0.0061 µM
- Kd (c-Cbl (residues 47-435)): 0.073 µM
